The values below come from patent publication US20150038438A1, “ANTIBACTERIAL COMPOUNDS AND METHODS FOR USE” (PTC THERAPEUTICS, INC., priority 2011, published 2015).

What all share (experiment): Antibacterial activity, microbroth dilution method (MIC)
On the technique in general: In broth dilution the organism is exposed to a series of concentrations in liquid medium.

In experiment [1] the test system is Gram-positive Staphylococcus aureus (S. aureus) 29213. The class given is cell-based. To be noted: Staphylococcus aureus, Gram-positive S. aureus 29213. In short, it runs like this:
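Potency is reported as minimum inhibitory concentration in μg/mL, determined by broth microdilution as the lowest level of compound that stops growth visible to the eye.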

The subject of experiment [2] is super sensitive Gram-negative Escherichia coli (E. coli) BAS849. Format: cell-based. Conditions: Escherichia coli, read-out: MIC, E. coli BAS849. In short, it runs like this:
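Broth microdilution against S. aureus 29213, E. coli 25922 and hypersensitive E. coli BAS849. MIC in μg/mL is the lowest drug concentration preventing macroscopically visible growth under test conditions.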

Experiment [3] concerns control Gram-negative E. coli 25922 strain. Format: cell-based, Escherichia coli. Conditions: Escherichia coli. The method, boiled down: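 MIC (μg/mL) read as lowest concentration with no macroscopically visible growth; microbroth dilution format. E. coli 25922 served as control Gram-negative strain.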
The mark [4] stands for this setting: super sensitive Gram-negative E. coli BAS849, microbroth dilution.

Converted amounts (≈) assume the structure as drawn. Where a name gives a salt, the structure may show the parent alone. Read-outs that look alike come from different tables or passages of the source.

A word on the MIC: it is the lowest concentration found to suppress growth.

With `Cl.Cn1c(CNC2CC2)cc2cc3c(cc21)OCCc1c-3[nH]c(=O)c(C(=O)O)c1O` [Cpd 171, 10-((cyclopropylamino)methyl)-4-hydroxy-9-methyl-2-oxo-2,5,6,9-tetrahydro-1H-pyrido[2′,3′:4,5]oxepino[3,2-f]indole-3-carboxylic acid hydrochloride], the MIC in experiment [1] is 3.5 to 12.5 µg/mL; in experiment [2] (setting [4]), below 1 µg/mL; in experiment [3], below 1 µg/mL.
Turning to `CNCc1cc2cc3c(cc2n1C)CCc1c-3[nH]c(=O)c(C(=O)O)c1O.Cl` [Cpd 20, 4-hydroxy-8-methyl-9-((methylamino)methyl)-2-oxo-2,5,6,8-tetrahydro-1H-indolo[6,5-h]quinoline-3-carboxylic acid hydrochloride], the MIC in experiment [1] lay within 12.5 to 150 µg/mL; in experiment [2] (setting [4]), 1 to 3.5 µg/mL; in experiment [3], 3.5 to 12.5 µg/mL.
Take `CN1CCCN(c2ccc3c(c2)CCCc2c-3[nH]c(=O)c(C(=O)O)c2O)CC1.Cl` [Cpd 112, 4-hydroxy-9-(4-methyl-1,4-diazepan-1-yl)-2-oxo-2,5,6,7-tetrahydro-1H-benzo[6,7]cyclohepta[1,2-b]pyridine-3-carboxylic acid hydrochloride]: the minimal inhibitory concentration (MIC) in experiment [1] lay in the range of 12.5 to 150 µg/mL; in experiment [2] (setting [4]), 1 to 3.5 µg/mL; in experiment [3], 3.5 to 12.5 µg/mL.
In the case of `COCC(C)NCc1cc2cc3c(cc2n1C)CCCc1c-3[nH]c(=O)c(C(=O)O)c1O.Cl` (stereo not drawn) [Cpd 150, 4-hydroxy-10-(((1-methoxypropan-2-yl)amino)methyl)-9-methyl-2-oxo-1,2,5,6,7,9-hexahydropyrido[3′,2′:6,7]cyclohepta[1,2-f]indole-3-carboxylic acid hydrochloride], the results for the minimal inhibitory concentration (MIC) in experiment [1], in experiment [2] (setting [4]) and in experiment [3] were 3.5 to 12.5 µg/mL, below 1 µg/mL and 1 to 3.5 µg/mL, respectively.
For `CN(C)CCN(C)Cc1cc2cc3c(cc2n1C)CCCc1c-3[nH]c(=O)c(C(=O)O)c1O.Cl.Cl` [Cpd 145, 10-(((2-(dimethylamino)ethyl)(methyl)amino)methyl)-4-hydroxy-9-methyl-2-oxo-1,2,5,6,7,9-hexahydropyrido[3′,2′:6,7]cyclohepta[1,2-f]indole-3-carboxylic acid dihydrochloride] the same measures were 12.5 to 150 µg/mL, below 1 µg/mL and 12.5 to 150 µg/mL.
The like results for `CCNCc1cc2cc3c(cc2n1C)CCC(C)c1c-3[nH]c(=O)c(C(=O)O)c1O.Cl` (stereo not drawn) [Cpd 67, 10-((ethylamino)methyl)-4-hydroxy-5,9-dimethyl-2-oxo-1,2,5,6,7,9-hexahydropyrido[3′,2′:6,7]cyclohepta[1,2-f]indole-3-carboxylic acid hydrochloride] were, in that order, 12.5 to 150 µg/mL, below 1 µg/mL and 1 to 3.5 µg/mL.
Consider `CCNCCc1cc2cc3c(cc2n1C)C=CCc1c-3[nH]c(=O)c(C(=O)O)c1O.O=C(O)C(F)(F)F` [Cpd 164, 10-(2-(ethylamino)ethyl)-4-hydroxy-9-methyl-2-oxo-1,2,5,9-tetrahydropyrido[3′,2′:6,7]cyclohepta[1,2-f]indole-3-carboxylic acid trifluoroacetate], for which the MIC in experiment [1] is 12.5 to 150 µg/mL; in experiment [2], below 1 µg/mL; in experiment [3], 1 to 3.5 µg/mL.
Regarding `C#CCNCc1cc2cc3c(cc2n1C)CCCc1c-3[nH]c(=O)c(C(=O)O)c1O.Cl` [Cpd 45, 4-hydroxy-9-methyl-2-oxo-10-((prop-2-yn-1-ylamino)methyl)-1,2,5,6,7,9-hexahydropyrido[3′,2′:6,7]cyclohepta[1,2-f]indole-3-carboxylic acid hydrochloride], the MIC in experiment [1] is 1 to 3.5 µg/mL; in experiment [2] (setting [4]) it was below 1 µg/mL; in experiment [3] it was 1 to 3.5 µg/mL.
As to `CC(C)NCc1cc2cc3c(cc2n1C)NCCc1c-3[nH]c(=O)c(C(=O)O)c1O.Cl` [Cpd 101, 4-hydroxy-10-((isopropylamino)methyl)-9-methyl-2-oxo-1,2,5,6,7,9-hexahydropyrido[2′,3′:4,5]azepino[3,2-f]indole-3-carboxylic acid hydrochloride], the MIC in experiment [1] lay in the range of 12.5 to 150 µg/mL; in experiment [2] (setting [4]), 1 to 3.5 µg/mL; in experiment [3] it was 3.5 to 12.5 µg/mL.
On to `CCNCc1cc2cc3c(cc2n1C)NCCCc1c-3[nH]c(=O)c(C(=O)O)c1O.Cl` [Cpd 104, 11-((ethylamino)methyl)-4-hydroxy-10-methyl-2-oxo-2,5,6,7,8,10-hexahydro-1H-pyrido[2′,3′:4,5]azocino[3,2-f]indole-3-carboxylic acid hydrochloride], for which the figures for the MIC in experiment [1], in experiment [2] (setting [4]) and in experiment [3] were 12.5 to 150 µg/mL, 1 to 3.5 µg/mL and 3.5 to 12.5 µg/mL, respectively.
For `Cl.Cn1c(CNCc2ccncc2)cc2cc3c(cc21)CCCc1c-3[nH]c(=O)c(C(=O)O)c1O` [Cpd 39, 4-hydroxy-9-methyl-2-oxo-10-(((pyridin-4-ylmethyl)amino)methyl)-1,2,5,6,7,9-hexahydropyrido[3′,2′:6,7]cyclohepta[1,2-f]indole-3-carboxylic acid hydrochloride] the same measures were 3.5 to 12.5 µg/mL, below 1 µg/mL and 3.5 to 12.5 µg/mL.
For `CC1COc2cc(N3C[C@@H]4[C@@H](N)[C@@H]4C3)ccc2-c2[nH]c(=O)c(C(=O)O)c(O)c21` (stereo partly drawn) [Cpd 86, 9-((cis,cis)-6-amino-3-azabicyclo[3.1.0]hexan-3-yl)-4-hydroxy-5-methyl-2-oxo-1,2,5,6-tetrahydrobenzo[2,3]oxepino[4,5-b]pyridine-3-carboxylic acid hydrochloride] the same measures were 12.5 to 150 µg/mL, below 1 µg/mL and 3.5 to 12.5 µg/mL.
Turning to `CC(=O)NC1CCN(Cc2cc3cc4c(cc3n2C)CCCc2c-4[nH]c(=O)c(C(=O)O)c2O)C1.Cl` (stereo not drawn) [Cpd 159, 10-((3-acetamidopyrrolidin-1-yl)methyl)-4-hydroxy-9-methyl-2-oxo-1,2,5,6,7,9-hexahydropyrido[3′,2′:6,7]cyclohepta[1,2-f]indole-3-carboxylic acid hydrochloride], the results for the MIC in experiment [1], in experiment [2] (setting [4]) and in experiment [3] were 12.5 to 150 µg/mL, below 1 µg/mL and 3.5 to 12.5 µg/mL, respectively.
Turning to `Cl.Cl.Cn1c(CNCCN2CCCC2)cc2cc3c(cc21)CCCc1c-3[nH]c(=O)c(C(=O)O)c1O` [Cpd 152, 4-hydroxy-9-methyl-2-oxo-10-(((2-(pyrrolidin-1-yl)ethyl)amino)methyl)-1,2,5,6,7,9-hexahydropyrido[3′,2′:6,7]cyclohepta[1,2-f]indole-3-carboxylic acid dihydrochloride], the minimal inhibitory concentration (MIC) in experiment [1] is 12.5 to 150 µg/mL; in experiment [2] (setting [4]), below 1 µg/mL; in experiment [3] it was 3.5 to 12.5 µg/mL.
In the case of `O=C(O)c1c(O)c2c([nH]c1=O)-c1ccc(N3CCCC3)cc1OCC2` [Cpd 77, 4-hydroxy-2-oxo-9-(pyrrolidin-1-yl)-1,2,5,6-tetrahydrobenzo[2,3]oxepino[4,5-b]pyridine-3-carboxylic acid], the MIC in experiment [1] is 3.5 to 12.5 µg/mL (≈ 10.2 to 36.5 µM); in experiment [2] (setting [4]), below 1 µg/mL; in experiment [3], 12.5 to 150 µg/mL (≈ 36.5 to 438 µM).
Consider `CC1CC1CNCc1cc2cc3c(cc2n1C)CCCc1c-3[nH]c(=O)c(C(=O)O)c1O.Cl` (stereo not drawn) [Cpd 38, 4-hydroxy-9-methyl-10-((((2-methylcyclopropyl)methyl)amino)methyl)-2-oxo-1,2,5,6,7,9-hexahydropyrido[3′,2′:6,7]cyclohepta[1,2-f]indole-3-carboxylic acid hydrochloride], for which the MIC in experiment [1] was 3.5 to 12.5 µg/mL; in experiment [2] (setting [4]), below 1 µg/mL; in experiment [3] it was 1 to 3.5 µg/mL.
For `Cn1ccc2cc3c(cc21)OCCc1c-3[nH]c(=O)c(C(=O)O)c1O` [Cpd 87, 4-hydroxy-9-methyl-2-oxo-2,5,6,9-tetrahydro-1H-pyrido[2′,3′:4,5]oxepino[3,2-f]indole-3-carboxylic acid] the same measures were 12.5 to 150 µg/mL (≈ 38.3 to 460 µM), below 1 µg/mL and 3.5 to 12.5 µg/mL (≈ 10.7 to 38.3 µM).
